Laboratory results taken from paper PMC2131780, “A Tale of Switched Functions: From Cyclooxygenase Inhibition to M-Channel Modulation in New Diphenylamine Derivatives” (PLoS ONE, 2007).
Read-outs that look alike come from different tables or passages of the source.

Experiments:
[1] = tested on: COX enzymes (CT26 mouse colon adenocarcinoma cells); assay: COX inhibition, PGE2 production in CT26 cells; format: cell-based
Source text: In addition, the aromatic rings of the diphenylamine moiety were substituted with different electron donating or withdrawing groups. In a first screen, two parameters were checked: (a) the non-selective inhibition of COX-1/COX-2 enzyme activities, measured by the production of PGE2 in cultured mouse colon adenocarcinoma (CT26) and mouse Lewis lung carcinoma cells (D122) cells; (b) the M-channel activity, measured by the heterologous coexpression of Kv7.2 and Kv7.3 subunits in Chinese hamster ovary (CHO) cells.
Mouse colon adenocarcinoma CT26 and mouse Lewis lung carcinoma D122 cells were grown in DMEM (D122) or RPMI (CT26) supplemented with 10% fetal calf serum, 4% glutamine, 1% penicillin-streptomycin-nystatin and 3% non essential amino acids (D122) and maintained in a humidified 37°C incubator with 5% CO2. For the COX assays, cells were grown onto 24 multiwell plates. Before the assay, cells were washed with serum-free medium; then tested compounds were added to the medium and incubated for 30 min at 37°C after which 30 µM arachidonic acid was added and incubated for additional 20 min. At the end of the incubations, 10 µM indomethacin was added to stop the reaction and medium was transferred to another 24 multiwell plate for measuring PGE2 production by radioimmunoassay (DuPont-NEN; Boston, MA) according to manufacturer protocol. Protein determination was assayed on scraped cells and was used to normalize the amount of PGE2 production. Assays with purified ovine COX-1 and human recombinant COX-2 were performed using the COX inhibitor screening assay (Cayman chemical company, Ann Arbor, MI), according to manufacturer protocol.

[2] = tested on: MES-induced tonic hind limb extension; assay: Maximal electroshock seizure (MES) model; format: in vivo, mouse; details: Mus musculus, ip; mice, intraperitoneal, 30 min before electroshock (0.2 sec, 50 mA); read-out: ED50, protection against tonic extension caused by MES
Experimental: This test is generally thought to be a model of generalized tonic-clonic seizure in human.
The anti-convulsant effect was measured by the maximal electroshock seizure model (MES) in ICR mice as previously described. The procedures followed for experimentation and maintenance of the animals were approved by the animal research ethics committee of Tel Aviv University and in accordance with the Guide for the Care and Use of Laboratory Animals (1996, National Academy of Sciences, Washington DC). Briefly, maximal electroshock was induced in adult mice by means of two transcorneal electrodes delivering an alternative current of 50 mA at 60 Hz for 0.2 sec using rodent shocker (Hugo Sachs Electronik, type 221). […] The drugs dissolved in 0.9% saline were administered intraperitoneally 30 min before the electroshock was performed. Animals failing to show tonic hind limb extension were scored as protected and were expressed in percentage.

O=C(Cc1cc([N+](=O)[O-])ccc1Nc1c(Cl)cccc1Cl)OCCO [Compound 15]
IC50 ([1]; average of two experiments in triplicate, read-out: COX inhibition (IC50, µM) CT26): 0.048 µM
IC50 ([1]; read-out: COX inhibition IC50, typical experiment (Figure 1)): 0.069 µM
ED50 [2]: 12 mg/kg
